Measured values taken from ChEMBL document CHEMBL1201862, “PubChem BioAssay data set” (2004).
Values belong to the compound of their own block, whether it stands above or below them. Activity calls are given as the source filed them.

Legend:
[1] = viability of uninfected HEp-2 cells – cell-based, HTS, cytotoxicity control for RSV inhibitor project, dose response (AID 2410); assay type: functional; details: human respiratory syncytial virus
[2] = target: Cytochrome P450 2C9 (Homo sapiens, UniProt P11712)
[3] = target: Cytochrome P450 2C19 (Homo sapiens, UniProt P33261); assay: Cytochrome panel assay with activity outcomes. Panel member name: p450-cyp2c19 Compounds with AC50 equal or less than 10 uM are considered active; assay type: functional; details: read-out: AC50
[4] = target: Cytochrome P450 3A4 (Homo sapiens, UniProt P08684);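 note: CYP3A4 tested as one member of a cytochrome P450 panel screen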
[5] = target: T1, Heat shock factor protein 1 (Mus musculus, UniProt P38532); assay: decrease of HSF1-responsive luciferase luminescence – cell-based, NIH3T3, dose retest, confirmation (AID 2382); assay type: functional;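 note: NIH3T3 fibroblasts with HSF1-driven luciferase reporter stressed by proteasome inhibitor MG132; luminescence from HSF1-driven luciferase expression after 8 hours of MG132 stress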
T1 sequence (P38532 whole entry): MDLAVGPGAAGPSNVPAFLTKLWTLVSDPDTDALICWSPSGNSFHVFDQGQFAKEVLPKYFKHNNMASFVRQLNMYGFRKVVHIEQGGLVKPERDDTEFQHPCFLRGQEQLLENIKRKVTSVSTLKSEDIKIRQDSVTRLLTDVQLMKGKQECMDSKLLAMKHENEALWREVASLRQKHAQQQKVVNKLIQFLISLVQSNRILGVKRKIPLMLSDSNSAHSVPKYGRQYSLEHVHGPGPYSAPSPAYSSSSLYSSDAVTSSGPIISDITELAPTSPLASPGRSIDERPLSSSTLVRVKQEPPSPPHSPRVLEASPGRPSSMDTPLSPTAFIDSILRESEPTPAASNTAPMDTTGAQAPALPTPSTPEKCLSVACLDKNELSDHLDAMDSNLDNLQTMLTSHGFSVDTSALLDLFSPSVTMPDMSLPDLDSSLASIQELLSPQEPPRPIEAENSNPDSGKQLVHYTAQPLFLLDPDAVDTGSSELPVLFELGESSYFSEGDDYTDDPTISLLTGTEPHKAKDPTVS

[6] = target: T2, Cytochrome P450 1A2 (Homo sapiens, UniProt P05177);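 note: PubChem cytochrome P450 panel assay, CYP1A2 panel member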
T2 sequence (P05177 whole entry): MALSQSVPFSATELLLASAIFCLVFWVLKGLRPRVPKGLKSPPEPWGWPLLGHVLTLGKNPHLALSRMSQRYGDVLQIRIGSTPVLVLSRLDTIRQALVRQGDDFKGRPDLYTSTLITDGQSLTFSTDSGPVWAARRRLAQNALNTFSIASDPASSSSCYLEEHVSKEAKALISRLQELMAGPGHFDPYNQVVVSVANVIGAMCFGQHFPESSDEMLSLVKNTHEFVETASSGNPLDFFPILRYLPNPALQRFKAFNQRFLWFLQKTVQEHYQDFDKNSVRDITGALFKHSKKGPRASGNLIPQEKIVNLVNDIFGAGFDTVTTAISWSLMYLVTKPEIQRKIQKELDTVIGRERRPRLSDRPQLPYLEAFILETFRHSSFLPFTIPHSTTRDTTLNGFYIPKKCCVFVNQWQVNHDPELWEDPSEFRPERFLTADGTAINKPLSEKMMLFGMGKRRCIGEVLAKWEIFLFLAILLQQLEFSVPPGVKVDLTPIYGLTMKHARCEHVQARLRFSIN

[7] = system: Streptococcus sp. 'group A'; assay: Streptococcus pyogenes SK(-)GAS viability under kanamycin – luminescence, BacTiterGlo, confirmation, counter-screen for streptokinase expression inhibitor project, dose response (AID 1900); assay type: functional, organism-based
[8] = system: Streptococcus; assay: GAS UMAA2166 growth inhibition – luminescence, BacTiterGlo, counter-screen for streptokinase expression inhibitor project, dose response (AID 1915); assay type: functional, organism-based;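 note: potency for reduction of bacterial viability or growth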
[9] = target: T3, Corticotropin-releasing factor receptor 2/Corticotropin-releasing factor-binding protein (Homo sapiens, UniProt P24387+Q13324); assay: activators of CRF receptor 2 with binding protein – uHTS hits, confirmation (AID 602473); assay type: functional; details: read-out: EC50_Mean
T3 sequence (Q13324 whole entry): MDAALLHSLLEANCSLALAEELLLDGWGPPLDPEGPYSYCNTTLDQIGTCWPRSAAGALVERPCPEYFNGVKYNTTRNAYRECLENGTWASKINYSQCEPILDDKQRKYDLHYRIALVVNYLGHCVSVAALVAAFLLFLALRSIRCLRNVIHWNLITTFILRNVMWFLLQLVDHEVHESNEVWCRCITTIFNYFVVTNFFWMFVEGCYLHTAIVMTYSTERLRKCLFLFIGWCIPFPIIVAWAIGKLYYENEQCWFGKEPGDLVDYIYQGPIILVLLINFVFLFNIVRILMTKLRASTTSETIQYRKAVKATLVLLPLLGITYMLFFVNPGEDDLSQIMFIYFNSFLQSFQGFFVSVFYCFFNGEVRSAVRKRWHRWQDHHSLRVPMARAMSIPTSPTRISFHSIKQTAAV
T3 sequence (P24387 whole entry): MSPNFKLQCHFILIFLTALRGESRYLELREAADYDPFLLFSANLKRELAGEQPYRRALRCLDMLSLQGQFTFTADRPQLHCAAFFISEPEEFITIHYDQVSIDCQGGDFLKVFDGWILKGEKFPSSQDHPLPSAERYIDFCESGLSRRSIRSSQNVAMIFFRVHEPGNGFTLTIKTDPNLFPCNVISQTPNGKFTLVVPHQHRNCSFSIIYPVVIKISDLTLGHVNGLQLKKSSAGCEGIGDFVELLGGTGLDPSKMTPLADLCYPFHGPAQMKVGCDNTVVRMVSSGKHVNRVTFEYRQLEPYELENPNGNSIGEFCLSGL

Cytochrome P450 3A4, sequence (P08684 whole entry): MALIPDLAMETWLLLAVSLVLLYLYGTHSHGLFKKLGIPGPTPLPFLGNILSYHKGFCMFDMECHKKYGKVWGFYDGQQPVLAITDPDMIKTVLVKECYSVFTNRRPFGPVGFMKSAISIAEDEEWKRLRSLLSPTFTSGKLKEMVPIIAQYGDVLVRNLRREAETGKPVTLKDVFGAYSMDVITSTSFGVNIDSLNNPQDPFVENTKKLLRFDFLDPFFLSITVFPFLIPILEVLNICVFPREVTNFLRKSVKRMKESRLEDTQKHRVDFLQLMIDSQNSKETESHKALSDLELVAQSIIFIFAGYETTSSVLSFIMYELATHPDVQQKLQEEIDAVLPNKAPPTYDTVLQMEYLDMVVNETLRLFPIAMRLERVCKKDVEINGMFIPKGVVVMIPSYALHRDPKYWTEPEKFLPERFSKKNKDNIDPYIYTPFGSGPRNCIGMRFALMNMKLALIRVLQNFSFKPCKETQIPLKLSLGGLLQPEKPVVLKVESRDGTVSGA
Cytochrome P450 2C19, sequence (P33261 whole entry): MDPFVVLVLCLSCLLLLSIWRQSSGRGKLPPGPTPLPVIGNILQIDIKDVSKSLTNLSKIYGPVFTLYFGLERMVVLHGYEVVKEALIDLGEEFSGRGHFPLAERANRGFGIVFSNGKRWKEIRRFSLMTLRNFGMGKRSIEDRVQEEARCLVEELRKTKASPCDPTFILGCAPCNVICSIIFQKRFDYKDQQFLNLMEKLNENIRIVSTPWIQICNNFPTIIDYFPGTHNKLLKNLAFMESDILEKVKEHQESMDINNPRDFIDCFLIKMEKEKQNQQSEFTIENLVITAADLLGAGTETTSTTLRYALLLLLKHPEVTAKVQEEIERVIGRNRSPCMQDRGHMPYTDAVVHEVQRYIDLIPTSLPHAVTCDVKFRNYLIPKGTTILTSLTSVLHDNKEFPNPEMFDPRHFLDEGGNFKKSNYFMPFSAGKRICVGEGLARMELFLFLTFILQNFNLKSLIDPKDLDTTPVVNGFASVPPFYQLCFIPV
Cytochrome P450 2C9, sequence (P11712 whole entry): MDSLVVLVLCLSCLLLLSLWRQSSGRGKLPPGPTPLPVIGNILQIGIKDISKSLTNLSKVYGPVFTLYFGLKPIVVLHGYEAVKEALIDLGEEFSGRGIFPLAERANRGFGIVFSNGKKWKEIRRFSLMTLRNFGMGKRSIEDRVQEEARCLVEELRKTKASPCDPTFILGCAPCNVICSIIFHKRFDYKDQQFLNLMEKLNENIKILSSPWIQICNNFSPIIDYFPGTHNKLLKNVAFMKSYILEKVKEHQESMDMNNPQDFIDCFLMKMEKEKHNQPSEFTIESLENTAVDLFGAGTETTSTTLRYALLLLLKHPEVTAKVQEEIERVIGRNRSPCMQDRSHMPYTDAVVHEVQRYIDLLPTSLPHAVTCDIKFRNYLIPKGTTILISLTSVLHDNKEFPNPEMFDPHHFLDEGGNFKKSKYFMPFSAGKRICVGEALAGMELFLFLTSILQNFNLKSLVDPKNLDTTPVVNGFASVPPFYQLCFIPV

SMILES: COc1cccc(C(c2nnnn2Cc2ccco2)N2CCN(c3cccc(C)c3C)CC2)c1OC (configuration not stated)
CC50 [1]: 18.5 µM (active)

SMILES: CCN(C(=O)C1CCCN(c2ncnc3c2nc2n3CCCCC2)C1)c1cccc(Cl)c1 (configuration not stated)
CC50 [1]: 10.7 µM (active)

SMILES: CCCCCc1nc2c(c(=O)c3ccccc3n2C)c(=O)n1Cc1ccc(OC)cc1
CC50 [1]: > 50 µM (active)

SMILES: COc1ccccc1C(=O)N/C(=C\c1cn(S(=O)(=O)N(C)C)c2ccccc12)C(=O)NCCN1CCOCC1
EC50 [5]: > 195 µM (not active)

SMILES: CCN1CCN(Cc2ccc(NC(=O)c3cc(NC(=O)c4cnnc5ccccc45)cc(OC)c3)cc2C(F)(F)F)CC1
CC50 [1]: 29 µM (active)

SMILES: COc1ccc(NC(=O)CC#N)cc1OC
AC50 [3]: 0.00501 µM (inconclusive)

SMILES: CC1(C)Cc2ccccc2C(NNC(=O)c2ccncc2)=N1
AC50 [3]: 31.6 µM (inconclusive)

SMILES: Cc1noc(C)c1COC(=O)c1cccc(N(C)C)c1
CC50 [1]: 11.9 µM (active)

SMILES: COc1ccc(-c2cc3ncnc(Cl)c3s2)cc1
EC50 [7]: 9.73 µM (active) | EC50 [8]: 26 µM (active)

SMILES: Cc1n[nH]c(C)c1S(=O)(=O)N1CCC(C(=O)O)CC1
AC50 [3]: 22.4 µM (inconclusive)

SMILES: Cc1ccc2nc(CC(=O)c3ccc4ccccc4c3)c(O)nc2c1
AC50 [6]: 2 µM (inconclusive) | AC50 [3]: 0.794 µM (inconclusive) | AC50 [4]: 3.98 µM (inconclusive)

Other lines, results leading:

AC50 [2]: 3.16 µM (inconclusive) | AC50 [3]: 3.16 µM (inconclusive)
SMILES: C[C@]12CC[C@H]3c4ccc(OC[C@H]5CO5)cc4CC[C@H]3[C@H]1CC[C@@H]2O

AC50 [2]: 7.94 µM (inconclusive) | AC50 [4]: 8.91 µM (inconclusive)
SMILES: COc1ccc2c(c1)C(=O)N(Cc1ccco1)C(=O)/C2=C\Nc1c(C)n(C)n(-c2ccccc2)c1=O

AC50 [6]: 14.1 µM (inconclusive) | AC50 [3]: 15.8 µM (inconclusive)
SMILES: COc1ccc(CC(=N)NOC(=O)Cc2ccccc2)cc1OC

EC50 [5]: > 195 µM (not active)
SMILES: O=C(c1ccc2c(=O)n(Cc3ccccc3)c(=S)[nH]c2c1)N1CCOCC1

AC50 [3]: 20 µM (inconclusive)
SMILES: CS(=O)(=O)N1CCC2(CC1)CN(c1ccncc1)C2

EC50 [5]: > 195 µM (not active)
SMILES: COc1cc2cc(CN(C(=O)NC3CCCCC3)C3CCCC3)c(O)nc2cc1OC

AC50 [3]: 2.51 µM (inconclusive) | AC50 [4]: 1.26 µM (inconclusive)
SMILES: COC(=O)[C@@H]1CC[C@H](C)[C@@H](c2ccc(C)cc2)N1C(=O)c1ccc(/C=N\OC[C@@H](O)COCc2ccco2)cc1

EC50 [5]: > 195 µM (not active)
SMILES: CC(C)CC1Nc2ccc(C(=O)NCCCN3CCOCC3)cc2NC1=O (configuration not stated)

EC50 [5]: > 195 µM (not active)
SMILES: CCOc1ccc(N/C(=N/N)c2ccc3ccccc3n2)cc1

EC50 [9]: 12.7 µM (active)
SMILES: COc1ccc(CN2CCSCC2)cc1C

EC50 [5]: > 195 µM (not active)
SMILES: COc1ccc(NS(=O)(=O)c2ccc(-c3ccccn3)s2)cc1

AC50 [6]: 20 µM (inconclusive) | AC50 [3]: 39.8 µM (inconclusive)
SMILES: COC(=O)[C@@]1(Cc2ccc(F)cc2)[C@H]2c3cc(C(=O)N4CCCC4)n(Cc4ccccn4)c3C[C@H]2CN1C(=O)c1ccccc1

AC50 [2]: 11.2 µM (inconclusive) | AC50 [4]: 20 µM (inconclusive)
SMILES: Cc1nc(SC2CC(=O)N(c3ccc([N+](=O)[O-])cc3)C2=O)nc2c1CCCC2 (configuration not stated)

AC50 [6]: 15.8 µM (inconclusive) | AC50 [4]: 11.2 µM (inconclusive)
SMILES: O=C(CSCc1ccccc1Cl)NNC(=O)c1ccccc1

AC50 [2]: 6.31 µM (inconclusive) | AC50 [4]: 3.16 µM (inconclusive)
SMILES: COc1ccc(-c2csc3c2[N+]2=CCC=C2C3[O-])cc1 (configuration not stated)
